Data: patent US9809640B2, “ApoE peptide dimers and uses thereof” (priority 2010, dated 2017)
Positions of bridges follow the written chain, without caps; N, C: chain ends. Chains are numbered I, II in the order given.

What was measured:
PP2A = PP2A activity in 32D:BCR/Abl chronic myelogenous leukemia cells (PP2A immunoprecipitation assay); format: cell-based; settings: 1 μM, 32D:BCR/Abl cells
Procedure: FIGS. 4A-4B. The BMOE-linked dimer peptide COG449 activates PP2A in CML cells. FIG. 4A: 32D-BCR/Abl chronic myelogenous leukemia cells were treated with COG449 (1 μM), COG445 (1 μM) (disulfide-linked COG112 dimer) or no treatment, and the PP2A activity was measured. FIG. 4B: 32D:BCR/Abl cell cultures were treated with no compound, 1 μM COG449, or 5 μM FTY720 for 30 minutes followed by lysis in an NP40 lysis buffer. PP2A was immunoprecipitated and assayed with the PP2A Immunoprecipitation assay kit (Upstate) according to the manufacturer's directions.
To further evaluate the effect of COG449, we measured the ability of the stable dimerized COG449 compound to activate PP2A in 32D:p210^BCR/Abl chronic myelogenous leukemia cells. […] 32D:p210^BCR/Abl chronic myelogenous leukemia cells were treated with no compound, 1 μM COG449, or 5 μM FTY720. We observed a robust increase of approximately 45% relative specific activity (phosphate release/minute/unit protein) of PP2A upon treatment with COG449 alone when compared to the untreated control, and about 20% activation compared with FTY720 (FIG. 4B).

[1] = biological target: T1, I2PP2A (SET) / PP2A catalytic subunit (Homo sapiens, UniProt Q01105); assay: Co-immunoprecipitation of I2PP2A (SET) with PP2A catalytic subunit in MB231 cells; format: cell-based; settings: 0.1 or 1 μM pre-treatment
T1 construct: endogenous in cells; host or cells: MDA-MB-231
Description: (§1) FIG. 12A: Total PP2A activity immunoprecipitated from MDA-MB-231 cells treated with EGF and increasing concentrations of COG445. FIG. 12B: Western blot and densitometry analysis of total c-myc protein levels in U87 cells treated with the indicated concentrations of COG445 in the presence or absence of okadaic acid. FIG. 12C: Immunoprecipitation of the catalytic subunit of PP2A from MDA-MB-231 cells exposed to EGF and two different concentrations of COG445. The blot is probed for I2PP2A (SET) and PP2A catalytic subunit.
To examine the mechanism of COG445 on PP2A activity, recombinant human PP2A catalytic subunit was incubated with COG445 and activity was measured. […] To further explore the changes of PP2A protein complexes, co-immunoprecipitation experiments were performed on MB231 cells.

[2] = Mouse toxicity, maximum tolerated dose by intravenous injection; settings: in vivo, maximum dose by intravenous injection without deaths after 24 hrs
MDA-MB-231 cells = assay: MB231 cellular proliferation by cell count; format: cell-based
Procedure: FIG. 14A: Dose response curve of COG445 on proliferation of U87 (open circles) and MDA-MB-231 (filled circles) cells as measured by MTT reduction. FIG. 14B: Dose response curve of COG445 on proliferation of MDA-MB-231 cells as measured by cell count.
Because COG445 inhibited Akt activation and downstream signaling, we examined the effects of COG445 on cellular proliferation. Adherent MB231 and U87 cells were grown for ˜24 hours in the presence of COG445 and cellular proliferation was measured by MTT reduction. […] Furthermore, COG445 inhibited MB231 cellular proliferation as determined by cell count (FIG. 14B). Approximately 6×10^4 cells were plated in growth media (RPMI+10% FBS) for 24-hours with increasing concentrations of COG445. […] However at concentrations ≧1 μM COG445, there appears to be a loss of cells. This is partially explained by decreased proliferation, although it is possible that the rate of cellular degradation was increased in the presence of COG445.

c-myc = assay: Total c-myc protein levels, Western blot; format: cell-based
Description: as §1
To further characterize the effect of COG445 on PP2A activity, MB231 cells were treated as above and the phosphatase activity of immunoprecipitated PP2A was measured. EGF stimulation caused a significant decrease in total PP2A activity compared to untreated serum starved cells (FIG. 12A). […] To further explore the extent of PP2A activation in response to COG445, total c-myc protein levels were determined by western blot analysis. C-myc is a substrate for PP2A and upon dephosphorylation is metabolized by ubiquitination and proteasomal degradation. In both U87 (FIG. 12B) and MB231 (data not shown) cell lines, c-myc levels decreased after a two-hour exposure to COG445 in a dose-dependent manner, reaching statistical significance at 1000 nM.

normal B-cells = assay: Cytotoxicity on normal B-cells from volunteers; format: cell-based, human
[3] = Cytotoxicity on normal B-cells from volunteers; format: cell-based, human; settings: human, normal B-cells from volunteers

T1 sequence (Q01105 2-290 limits assumed): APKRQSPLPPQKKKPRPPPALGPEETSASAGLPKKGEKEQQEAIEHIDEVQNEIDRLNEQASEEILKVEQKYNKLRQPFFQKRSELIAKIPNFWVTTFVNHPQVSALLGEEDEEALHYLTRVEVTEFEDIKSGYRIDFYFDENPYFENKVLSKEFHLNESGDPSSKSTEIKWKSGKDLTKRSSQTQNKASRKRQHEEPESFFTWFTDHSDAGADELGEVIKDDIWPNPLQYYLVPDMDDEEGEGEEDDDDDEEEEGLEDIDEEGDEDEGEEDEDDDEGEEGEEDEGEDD

I: Ac-RQIKIWFQNRRMKWKKCLRVRLASHLRKLRKRLL-NH2 / II: Ac-RQIKIWFQNRRMKWKKCLRVRLASHLRKLRKRLL-NH2 (disulfide I:17-II:17) [COG445, COG112-C-C-COG112]
phosphate release due to activation of PP2A relative to untreated control cells (PP2A): increased phosphate release | association of I2PP2A to the catalytic subunit of PP2A [1]: strongly diminished | MTD at 24 h [2]: 28 mg/kg | cellular proliferation by cell count (MDA-MB-231 cells; 0.1 μM): slight decrease | cellular proliferation by cell count (MDA-MB-231 cells; 24 hours): inhibited | cell count (MDA-MB-231 cells; ≧1 μM): loss of cells | c-myc levels in the presence of OA (c-myc): unaltered | c-myc levels (c-myc; two-hour exposure, U87 and MB231, significant at 1000 nM): decreased | EC50 normal B-cells relative to CLL cells (normal B-cells): ~200 fold | EC50 at 72 h [3]: > 10 µM
